Test system: peripheral microvascular endothelial function
Experiment: PAT with reactive hyperemia after L-NMMA infusion followed by cocoa beverage
Assay type: in vivo, human
Method: Peripheral arterial tonometry (PAT) measurements were taken of three volunteers according to the following study. This is a non-invasive technique for examining peripheral microvascular endothelial function. Microvascular endothelial function is assessed by the direct measurement of changes in digital (finger) pulse volume following reactive hyperemia.
On study days, the subjects reported in a fasted state between 7:30 and 9:00 a.m. Body weight, resting heart rate, and blood pressure were all re-measured. […] Subjects then lied down on their backs to acclimatize to ambient conditions. After 30 minutes, a non-invasive, sterile, single-use finger probe was fitted to a finger and a baseline PAT reading was taken and recorded for 10 minutes. The subjects were then subjected to a reactive hyperemia procedure (“RH”) which consisted of a period of blood flow occlusion to the measurement arm using an upper arm blood pressure cuff, pressurized to achieve a supra-systolic level (equivalent to about 60 mm mercury above systolic blood pressure) for 5 minutes. Then the cuff was released and the data recorded for another five minutes. Following this first reading, subjects drank 3 bottles of Cocoa Drink A (total 483 mg). Over the next six hours, the PAT response was monitored at two, four and six hours.
The infusion of L-NMMA occurred over 30 minutes (1mg/kg/min for the first 3 minutes and then 0.2 mg/kg/min for the next 27 minutes). Following infusion of the L-NMMA, 3 bottles of the beverage were fed (483 mg) per subject. Readings were done for baseline, after infusion of L-NMMA and after consumption of cocoa.
Referring to Table 1, RH indicates PAT value following a reactive hyperemia procedure; “baseline” refers to baseline reading prior to occlusion period.
The data supports an NO-independent mechanism of action of the compounds described herein. […] This indicates the blood flow was affected via an NO-independent mechanism. Peripheral blood flow/vasodilation is a function of both NO and NO-independent vasodilators. The endothelium derived NO is one of the most important mediators of vascular tone; however, NO is not the only compound regulating vascular tone. As such, being able to operate via NO-independent mechanisms means that the compound of the invention can exert important vasodilatory effects on the microvasculature which are independent of an intact endothelium. If the endothelium is compromised in any way and simply cannot produce enough NO, the fact that the compounds of the invention act in an endothelium independent fashion offers greater therapeutic benefits, which was previously unexpected.

[1] = Subject #1, Day 11, after 30 min intravenous infusion of L-NMMA
[2] = Subject #5, Day 10, after 30 min intravenous infusion of L-NMMA
[3] = Subject #6, Day 11, after 30 min intravenous infusion of L-NMMA

CNC(=N)NCCC[C@H](N)C(=O)O [LNMMA]
Baseline (baseline PAT reading prior to occlusion period) [1]: 616
RH (PAT value following a reactive hyperemia procedure) [1]: 1.61
Baseline (baseline PAT reading prior to occlusion period) [2]: 689
RH (PAT value following a reactive hyperemia procedure) [2]: 1.42
Baseline (baseline PAT reading prior to occlusion period) [3]: 597
RH (PAT value following a reactive hyperemia procedure) [3]: 1.75
change in the RH value (all three subjects, after L-NMMA infusion): dramatic reduction

— US20070037872A1, “Inducing peripheral blood vesel vasodilation” (Mars, Incorporated, priority 2005, published 2007)
